{"source": "patent EP0700301B1", "about": "“PEPTIDES AND COMPOUNDS THAT BIND TO ELAM-1” (AFFYMAX TECHNOLOGIES N.V., priority 1993, dated 1994)", "target": "T1, immobilized ELAM-1 (Homo sapiens, UniProt P16581)", "T1 construct": "truncated form comprising the complete extracellular domain (amino acids 1 through 554); made in house; released with phospholipase C", "T1 sequence (P16581 22-554)": "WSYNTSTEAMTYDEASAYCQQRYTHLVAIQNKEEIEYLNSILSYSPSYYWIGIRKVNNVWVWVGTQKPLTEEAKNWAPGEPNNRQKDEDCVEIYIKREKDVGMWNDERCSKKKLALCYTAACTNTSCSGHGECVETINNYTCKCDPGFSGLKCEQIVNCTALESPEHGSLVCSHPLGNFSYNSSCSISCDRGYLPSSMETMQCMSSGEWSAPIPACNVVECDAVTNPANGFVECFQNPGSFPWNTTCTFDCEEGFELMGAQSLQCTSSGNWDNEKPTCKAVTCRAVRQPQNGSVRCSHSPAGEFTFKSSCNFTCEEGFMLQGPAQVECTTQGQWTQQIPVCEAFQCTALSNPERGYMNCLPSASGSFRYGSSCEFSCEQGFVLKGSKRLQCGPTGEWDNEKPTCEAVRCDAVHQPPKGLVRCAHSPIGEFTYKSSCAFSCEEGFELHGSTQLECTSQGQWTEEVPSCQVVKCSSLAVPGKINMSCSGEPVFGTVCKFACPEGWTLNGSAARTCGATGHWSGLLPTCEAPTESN", "assay": "cell-based", "type": "cell-based", "description": "By comparing test wells with control wells (no receptor), one can determine whether a peptide binds to ELAM-1 specifically. Peptides found to bind specifically to ELAM-1 were then synthesized as the free peptide (no phage) and tested in an HL60 cell adhesion competition assay. The competition assay was carried out similarly to the ELISA, except that labeled HL60 cells were added in addition to the peptide (the control wells were typically of at least two types: (1) no immobilized ELAM-1; and (2) no peptide; see the Examples). Peptides that block the binding of labeled HL60 cells ELAM-1 are preferred compounds of the invention. […] The assay requires HL60 cells labeled with tritiated thymidine. To label the cells, about 10 million HL60 cells are collected by centrifugation (2500 RPM for 3 minutes) and resuspended in 15 mL of DMEM/F12 plus 5% fetal calf serum containing 2 μCi/mL of tritiated thymidine (Amersham). The cells are then placed in a T75 flask and incubated at 37°C for 24 hours. The cells are then collected by centrifugation, washed twice with RPMI/HEPES/0.1% FCS, and resuspended in the same solution at a concentration of about one to two million cells per mL. […] After this incubation, aliquots were removed from each well and placed in scintillation vials; scintillation fluid was added to each vial; and the radioactivity in each aliquot was quantitated by LS counting. […]", "note": "Ends that are not written are not given here.", "data": [{"sequence": "HITWDQLWNVMN", "values": [{"measurement": "blocking of HL60 cell binding that occurred in the absence of added compound", "setting": "200000.0", "value": "over 80%"}, {"measurement": "inhibition at 50 µM", "setting": "HL-60, at a concentration of 50 µM, tested from 0.5 to 100 µM, Figure 2, read-out: inhibition of binding of HL60 cells", "value": "~50", "unit": "%"}]}]}
